Measurements reported in patent publication US20080171706A1, “Anti-Adhesive Compounds to Prevent and Treat Bacterial Infections” (priority 2004, published 2008).
Where two headings read alike, the source gives them in different places.

Biological target: T1, FimHtrJ96 (Escherichia coli, UniProt P08191)
T1 construct: coding for the lectin domain of FimH (residues 1-158) with a C-terminal 6-histidine tag; made in house; host or cells: E. coli HB101 (lacking the fim operon), periplasmic extract, plasmid pPKL241
T1 sequence (P08191 22-179): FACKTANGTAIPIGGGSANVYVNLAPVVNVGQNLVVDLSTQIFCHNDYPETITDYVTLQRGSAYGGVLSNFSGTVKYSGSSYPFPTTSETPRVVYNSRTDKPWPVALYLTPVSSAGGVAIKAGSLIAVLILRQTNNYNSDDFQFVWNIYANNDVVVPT
Test: biochemical
Assay type: binding, uropathogenic E. coli strain J96
Protocol: To measure the dissociation constant for FimH:alkyl or aryl-mannoside binding, two different binding assays were developed. The first binding assay uses [^3H]-mannose. The amount of radioactively labeled mannose bound to FimHtrJ96 was measured at six different concentrations of [^3H]-mannose, and a hyperbolic curve fitted to the resulting data (FIG. 1A). FimHtrJ96 corresponds to the carbohydrate (mannose) binding domain of FimH from the uropathogenic E. coli strain J96. The dissociation equilibrium constant was determined from this graph at the concentration of mannose […], which corresponds to occupation of half of the binding sites.
Surface Plasmon Resonance measurements were performed on a Biacore3000™. In a first experiment, the kinetic constants and maximal binding were determined for the FimH-antibody interaction. Next, a fixed concentration of FimH (close to the KD of the FimH-antibody interaction) in combination with varying concentrations of carbohydrate, were used to determine the dissociation equilibrium constant of the FimH-saccharide interaction in a competition experiment. Every measurement was repeated at least twice, including testing the variation between different protein and saccharide batches.
To eliminate the possibility of different binding strength for full length FimH and FimHtrJ96, the binding of alpha-D-mannose to FimC:FimH complex was also measured. […] The inhibition of [^3H]-mannose binding was used in a displacement assay to determine the dissociation constant for a synthetic butyl mannoside by measuring the amount of [^3H]-mannose bound to the protein in the presence of increasing amounts of the inhibitor (FIG. 1B). […] To investigate the effect of sequential addition of methyl groups to the O1 oxygen of D-mannose, a series of alkyl mannosides were synthesized and the dissociation constants determined using the [^3H]-mannose displacement assay and by surface plasmon resonance (Table 1).
Surface Plasmon Resonance measurements were performed on a Biacore3000™. The Fab fragments of a monoclonal antibody against FimH were covalently immobilised via lysines at 1000 Resonance Units (1000 pg ligand/mm^2) in flowcell Fc2 on a CM5 biasensor chip (BIAapplications Handbook, Biacore AB, Uppsala, Sweden). Immobilisation buffer was 100 mM NaAc pH 5.0 with 100 mM NaCl. The reference flowcell Fc1 was left blank.
Binding of FimH to the immobilized antibody was measured with a Biacore 3000 instrument in running buffer (phosphate buffered saline with 0.005% surfactant P20 and 3 mM EDTA), on both flowcells Fc1 and Fc2 simultaneously, at a flow rate of 30 μl/min and at 25° C. Complete dissociation of FimH was done with running buffer before starting a new binding cycle. For all measurements, the association time was 3 minutes, the dissociation time was 30 min. All binding cycles were performed in duplicate, including a zero concentration cycle of FimH (injection of running buffer).
In a first experiment, the kinetic constants, ka and kd, and the maximal binding Rmax, were determined for the FimH-antibody interaction (FimH concentrations (nM): 2000, 1000, 500, 250, 125, 62.5, 31.25, 15.625, 7.818, 3.911, 1.957, 0). All analyses were performed with the BIAeval software. A Langmuir binding isotherm with a 1:1 stoichiometry was fitted to the data, from which the kinetic constants and maximal binding were obtained.
In the next experiment, samples containing a fixed concentration of FimH (close to the KD of the FimH-antibody interaction) in combination with varying concentrations of saccharide, were used to determine the dissociation constant of the FimH-saccharide interaction in a competition experiment. First, ten-fold dilutions of the saccharide solution were used to determine the concentration range for binding of the saccharide to FimH.

Structure (SMILES): OC[C@H]1O[C@H](O)[C@@H](O)[C@@H](O)[C@@H]1O [Mannose, α-D-mannose]
- Kd: 2300 nM
- Kd (Table 1, O1 alkyl and aryl mannosides, SPR and displacement binding experiments): 2300 nM
- ΔG° (Table 1, calculated from KD): -7.6 kcal/mol
- ΔG° J96 (Table 3, calculated from KD): -7.6 kcal/mol
- Kd (read-out: KD J96, Table 3, [3H]-mannose displacement assay (mannose measured directly)): 2300 nM
